ChEMBL document CHEMBL3885861, “Open TG-GATES”

Species on record: Rattus norvegicus
Test: Open TG-GATES - Regimen: Single
Format: toxicity, organism-based, Sprague-Dawley
Design: regimen Single, gender Male, age 6 weeks
Conditions: in vivo, po, route gavage; for APTT / Bas / Eos / Fbg / Hb / Ht / Lym / MCH / MCHC / MCV / Mono / Neu / PT / Plat / RBC / Ret / WBC: tissue Blood; for ALP / ALT / AST / BUN / CRE / DBIL / GLC / IP / K / Na / PL / RALB / TBIL / TC / TG / TP / gamma-GTP: tissue Plasma
[1] = 0 mg/kg, 3 h, dose level Control
[2] = 0 mg/kg, 6 h, dose level Control
[3] = 0 mg/kg, 9 h, dose level Control
[4] = 0 mg/kg, 24 h, dose level Control

## NS(=O)(=O)c1cc(C(=O)O)c(NCc2ccco2)cc1Cl [FUROSEMIDE]
[1]
  TERMINAL_BW: 205.5 g
  APTT: 15.8 s
  Bas: 0%
  Eos: 0.8%
  Fbg: 270 mg/dL
  Hb: 13.2 g/dL
  Ht: 39.9%
  Lym: 78.2%
  MCH: 21.5 pg
  MCHC: 33.2%
  MCV: 64.8 fL
  Mono: 2.8%
  Neu: 17.2%
  PT: 15.6 s
  Plat: 115.8 x10_4/uL
  RBC: 615.6 x10_4/ul
  Ret: 7.3%
  WBC: 70.5 x10_2/uL
  ALP: 1448.8 IU/L
  ALT: 40.4 IU/L
  AST: 76.2 IU/L
  BUN: 10.2 mg/dL
  CRE: 0.2 mg/dL
  DBIL: 0.01 mg/dL
  GLC: 172.8 mg/dL
  IP: 9 mg/dL
  K: 4 meq/L
  Na: 142.4 meq/L
  PL: 137.6 mg/dL
  RALB: 2.5 g/dL
  TBIL: 0.058 mg/dL
  TC: 72.2 mg/dL
  TG: 61.6 mg/dL
  TP: 5.4 g/dL
  gamma-GTP: 0.6 IU/L
[2]
  TERMINAL_BW: 207.5 g
  APTT: 16.5 s
  Bas: 0%
  Eos: 1.2%
  Fbg: 313.6 mg/dL
  Hb: 13.1 g/dL
  Ht: 39.4%
  Lym: 75.8%
  MCH: 21.2 pg
  MCHC: 33.1%
  MCV: 63.9 fL
  Mono: 2.8%
  Neu: 19.4%
  PT: 15.3 s
  Plat: 122.5 x10_4/uL
  RBC: 617.2 x10_4/ul
  Ret: 8%
  WBC: 72.8 x10_2/uL
  ALP: 1332.6 IU/L
  ALT: 39 IU/L
  AST: 70.6 IU/L
  BUN: 11 mg/dL
  CRE: 0.2 mg/dL
  DBIL: 0.012 mg/dL
  GLC: 173.8 mg/dL
  IP: 9.7 mg/dL
  K: 3.9 meq/L
  Na: 142.2 meq/L
  PL: 143.2 mg/dL
  RALB: 2.6 g/dL
  TBIL: 0.062 mg/dL
  TC: 80.4 mg/dL
  TG: 48.8 mg/dL
  TP: 5.5 g/dL
  gamma-GTP: 0.8 IU/L
[3]
  TERMINAL_BW: 206.6 g
  APTT: 19.4 s
  Bas: 0%
  Eos: 0.8%
  Fbg: 294.4 mg/dL
  Hb: 13 g/dL
  Ht: 39%
  Lym: 79.6%
  MCH: 20.7 pg
  MCHC: 33.2%
  MCV: 62.4 fL
  Mono: 2.2%
  Neu: 17%
  PT: 15.3 s
  Plat: 108.3 x10_4/uL
  RBC: 625.6 x10_4/ul
  Ret: 7.8%
  WBC: 70.5 x10_2/uL
  ALP: 1206 IU/L
  ALT: 40.8 IU/L
  AST: 68.2 IU/L
  BUN: 9 mg/dL
  CRE: 0.2 mg/dL
  DBIL: 0.01 mg/dL
  GLC: 182.8 mg/dL
  IP: 10.2 mg/dL
  K: 4 meq/L
  Na: 144.2 meq/L
  PL: 142 mg/dL
  RALB: 2.6 g/dL
  TBIL: 0.066 mg/dL
  TC: 79 mg/dL
  TG: 35.8 mg/dL
  TP: 5.6 g/dL
  gamma-GTP: 0.8 IU/L
[4]
  TERMINAL_BW: 222.4 g
  APTT: 16.2 s
  Bas: 0%
  Eos: 1%
  Fbg: 270.8 mg/dL
  Hb: 13.1 g/dL
  Ht: 39.3%
  Lym: 74.2%
  MCH: 21.3 pg
  MCHC: 33.3%
  MCV: 64.1 fL
  Mono: 3.2%
  Neu: 20.6%
  PT: 15.9 s
  Plat: 116.4 x10_4/uL
  RBC: 613.6 x10_4/ul
  Ret: 7.6%
  WBC: 104.1 x10_2/uL
  ALP: 1714.2 IU/L
  ALT: 47.4 IU/L
  AST: 73.4 IU/L
  BUN: 15.4 mg/dL
  CRE: 0.2 mg/dL
  DBIL: 0.014 mg/dL
  GLC: 182.4 mg/dL
  IP: 8.4 mg/dL
  K: 4.2 meq/L
  Na: 141.6 meq/L
  PL: 156 mg/dL
  RALB: 2.6 g/dL
  TBIL: 0.052 mg/dL
  TC: 81.6 mg/dL
  TG: 72.8 mg/dL
  TP: 5.7 g/dL
  gamma-GTP: 0.8 IU/L
30 mg/kg, 3 h, dose level Low
  TERMINAL_BW: 201.3 g
  APTT: 18.1 s
  Bas: 0%
  Eos: 1%
  Fbg: 278.8 mg/dL
  Hb: 14 g/dL
  Ht: 41.6%
  Lym: 74.2%
  MCH: 21.2 pg
  MCHC: 33.6%
  MCV: 63.2 fL
  Mono: 4.4%
  Neu: 19.6%
  PT: 15.4 s
  Plat: 117.4 x10_4/uL
  RBC: 658.6 x10_4/ul
  Ret: 7.9%
  WBC: 68.2 x10_2/uL
  ALP: 1468.8 IU/L
  ALT: 46 IU/L
  AST: 77 IU/L
  BUN: 15.4 mg/dL
  CRE: 0.2 mg/dL
  DBIL: 0.01 mg/dL
  GLC: 179.2 mg/dL
  IP: 10.5 mg/dL
  K: 3.7 meq/L
  Na: 141.6 meq/L
  PL: 149.8 mg/dL
  RALB: 2.8 g/dL
  TBIL: 0.058 mg/dL
  TC: 79.4 mg/dL
  TG: 63.6 mg/dL
  TP: 5.9 g/dL
  gamma-GTP: 1 IU/L
30 mg/kg, 6 h, dose level Low
  TERMINAL_BW: 199.3 g
  APTT: 17.5 s
  Bas: 0%
  Eos: 1%
  Fbg: 324.6 mg/dL
  Hb: 14.1 g/dL
  Ht: 41.9%
  Lym: 74.4%
  MCH: 21.6 pg
  MCHC: 33.7%
  MCV: 64 fL
  Mono: 3.8%
  Neu: 20%
  PT: 15.2 s
  Plat: 124.8 x10_4/uL
  RBC: 655.4 x10_4/ul
  Ret: 7.9%
  WBC: 92.3 x10_2/uL
  ALP: 1320.8 IU/L
  ALT: 45.6 IU/L
  AST: 74.6 IU/L
  BUN: 17.8 mg/dL
  CRE: 0.2 mg/dL
  DBIL: 0.016 mg/dL
  GLC: 181.2 mg/dL
  IP: 10.4 mg/dL
  K: 3.6 meq/L
  Na: 141 meq/L
  PL: 156.2 mg/dL
  RALB: 2.9 g/dL
  TBIL: 0.074 mg/dL
  TC: 88.2 mg/dL
  TG: 44.2 mg/dL
  TP: 6.1 g/dL
  gamma-GTP: 1 IU/L
30 mg/kg, 9 h, dose level Low
  TERMINAL_BW: 199.5 g
  APTT: 17.3 s
  Bas: 0%
  Eos: 1%
  Fbg: 310.2 mg/dL
  Hb: 14 g/dL
  Ht: 41.4%
  Lym: 73%
  MCH: 21.5 pg
  MCHC: 33.8%
  MCV: 63.8 fL
  Mono: 3.2%
  Neu: 22%
  PT: 15.4 s
  Plat: 118.1 x10_4/uL
  RBC: 649.2 x10_4/ul
  Ret: 8.1%
  WBC: 89.5 x10_2/uL
  ALP: 1152.2 IU/L
  ALT: 38.6 IU/L
  AST: 68.6 IU/L
  BUN: 16.4 mg/dL
  CRE: 0.2 mg/dL
  DBIL: 0.01 mg/dL
  GLC: 181.4 mg/dL
  IP: 10.7 mg/dL
  K: 3.7 meq/L
  Na: 143 meq/L
  PL: 147.4 mg/dL
  RALB: 2.7 g/dL
  TBIL: 0.072 mg/dL
  TC: 81 mg/dL
  TG: 38 mg/dL
  TP: 5.8 g/dL
  gamma-GTP: 0.8 IU/L
30 mg/kg, 24 h, dose level Low
  TERMINAL_BW: 224.4 g
  APTT: 17.3 s
  Bas: 0.2%
  Eos: 1%
  Fbg: 267 mg/dL
  Hb: 13.3 g/dL
  Ht: 39.7%
  Lym: 78.6%
  MCH: 21.8 pg
  MCHC: 33.5%
  MCV: 65.1 fL
  Mono: 2.8%
  Neu: 16.4%
  PT: 15.8 s
  Plat: 118.7 x10_4/uL
  RBC: 610 x10_4/ul
  Ret: 7.4%
  WBC: 96 x10_2/uL
  ALP: 1538.8 IU/L
  ALT: 44.6 IU/L
  AST: 73.6 IU/L
  BUN: 16 mg/dL
  CRE: 0.2 mg/dL
  DBIL: 0.01 mg/dL
  GLC: 183.4 mg/dL
  IP: 7.7 mg/dL
  K: 4 meq/L
  Na: 142.6 meq/L
  PL: 147.8 mg/dL
  RALB: 2.6 g/dL
  TBIL: 0.052 mg/dL
  TC: 81.8 mg/dL
  TG: 60.8 mg/dL
  TP: 5.6 g/dL
  gamma-GTP: 0.8 IU/L
